In the supplement of paper PMC6045584:
± gives the standard deviation of the averaged measurements.

Key:
CRIZOTINIB = compound: C[C@@H](Oc1cc(-c2cnn(C3CCNCC3)c2)cnc1N)c1c(Cl)ccc(F)c1Cl [CRIZOTINIB]; assay: surviving fraction relative to DMSO-only wells; higher = less growth inhibition; settings: exposure time: 5 days
Procedure, shortened: (§1)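 Viability values are CellTiter-Glo luminescence readings, given as surviving fraction against the median of DMSO-only wells. The readings were taken after 10 minutes at room temperature, following five days of continuous exposure to inhibitors at 0.5, 1, 5, 10, 50, 100, 500 and 1000 nM that began 24 hours after log-phase tumour cell lines were seeded at 250–500 cells per well in 384-well plates. Every line was screened three times and kept only if replicate Pearson r >0.7 and median Z' >0.3.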

OLAPARIB = compound: O=C(c1cc(Cc2n[nH]c(=O)c3ccccc23)ccc1F)N1CCN(C(=O)C2CC2)CC1 [OLAPARIB]; assay: as above; settings: exposure time: 5 days
Procedure, shortened: as §1

Test System | surviving fraction (CRIZOTINIB; 0.5 nM) | surviving fraction (CRIZOTINIB; 1 nM) | surviving fraction (CRIZOTINIB; 5 nM) | surviving fraction (CRIZOTINIB; 10 nM) | surviving fraction (CRIZOTINIB; 50 nM) | surviving fraction (CRIZOTINIB; 100 nM) | surviving fraction (CRIZOTINIB; 500 nM) | surviving fraction (CRIZOTINIB; 1000 nM) | surviving fraction (OLAPARIB; 0.5 nM) | surviving fraction (OLAPARIB; 1 nM) | surviving fraction (OLAPARIB; 5 nM) | surviving fraction (OLAPARIB; 10 nM) | surviving fraction (OLAPARIB; 50 nM) | surviving fraction (OLAPARIB; 100 nM) | surviving fraction (OLAPARIB; 500 nM) | surviving fraction (OLAPARIB; 1000 nM)
JIMT1 BREAST | 1.01 ± 0.029 | 1.01 ± 0.029 | 1.03 ± 0.012 | 1 ± 0.032 | 1.07 ± 0.045 | 1.08 ± 0.036 | 0.833 ± 0.044 | 0.538 ± 0.022 | 0.917 ± 0.035 | 0.911 ± 0.024 | 0.9352 ± 0.0078 | 0.907 ± 0.023 | 0.934 ± 0.026 | 0.9217 ± 0.0036 | 0.9207 ± 0.0084 | 0.846 ± 0.025
NOS1 BONE | 1.03 ± 0.12 | 1.13 ± 0.07 | 1.11 ± 0.044 | 1.23 ± 0.2 | 1.11 ± 0.043 | 1.69 ± 0.86 | 0.69 ± 0.036 | 0.484 ± 0.051 | 1.09 ± 0.13 | 0.985 ± 0.096 | 0.981 ± 0.063 | 0.999 ± 0.079 | 0.828 ± 0.062 | 0.773 ± 0.049 | 0.553 ± 0.065 | 0.521 ± 0.071
HOSMNG BONE | 0.954 ± 0.09 | 0.983 ± 0.1 | – | – | 0.649 ± 0.012 | 0.501 ± 0.017 | 0.329 ± 0.032 | 0.227 ± 0.011 | 0.877 ± 0.088 | 0.991 ± 0.034 | 0.964 ± 0.043 | 0.933 ± 0.049 | 1.02 ± 0.056 | 1.05 ± 0.03 | 1.06 ± 0.021 | 0.925 ± 0.14
BT549 BREAST | – | 1.07 ± 0.056 | – | 1.06 ± 0.041 | 1.05 ± 0.062 | 1.09 ± 0.097 | – | 0.375 ± 0.016 | 1.03 ± 0.096 | 1.01 ± 0.064 | 0.941 ± 0.0053 | 0.9883 ± 0.0074 | 0.686 ± 0.041 | 0.719 ± 0.062 | 0.718 ± 0.033 | 0.598 ± 0.048
CAL120 BREAST | 0.969 ± 0.069 | 1 ± 0.076 | 0.982 ± 0.038 | – | 1 ± 0.04 | 1.01 ± 0.049 | 0.933 ± 0.012 | 0.685 ± 0.026 | 0.9857 ± 0.0086 | 0.998 ± 0.018 | 1 ± 0.023 | 0.973 ± 0.024 | 0.979 ± 0.01 | 0.942 ± 0.04 | 0.892 ± 0.013 | 0.825 ± 0.043
VP229 BREAST | – | 1.23 ± 0.082 | 1.06 ± 0.018 | 1.23 ± 0.059 | 1.14 ± 0.048 | 1.15 ± 0.14 | 1.03 ± 0.15 | 0.686 ± 0.14 | 1.07 ± 0.11 | 1.08 ± 0.13 | 1.01 ± 0.021 | 1.12 ± 0.19 | 0.886 ± 0.071 | 0.788 ± 0.068 | 0.879 ± 0.12 | 0.821 ± 0.046
HT1080 SOFT TISSUE | 1.07 ± 0.038 | 1.07 ± 0.028 | 1.07 ± 0.016 | 1.06 ± 0.017 | 1.04 ± 0.062 | 1.07 ± 0.052 | 1.02 ± 0.042 | 0.798 ± 0.064 | 1.02 ± 0.0063 | 0.977 ± 0.023 | 0.9903 ± 0.0038 | 0.965 ± 0.013 | 0.882 ± 0.037 | 0.819 ± 0.032 | 0.7243 ± 0.0055 | 0.608 ± 0.021
ZR751 BREAST | – | 1.07 ± 0.14 | 0.926 ± 0.024 | – | 1.07 ± 0.1 | – | 0.818 ± 0.095 | 0.747 ± 0.07 | 1.11 ± 0.17 | 1.08 ± 0.13 | 1.08 ± 0.35 | 1.01 ± 0.1 | 1.1 ± 0.023 | 1.11 ± 0.086 | 1.14 ± 0.089 | 1.02 ± 0.14
HCC202 BREAST | 1.38 ± 0.033 | – | 1.24 ± 0.47 | 1.05 ± 0.069 | 1.13 ± 0.018 | 1.25 ± 0.37 | 1.12 ± 0.12 | 1.246 ± 0.0085 | 0.896 ± 0.024 | 0.973 ± 0.12 | 0.987 ± 0.19 | 0.92 ± 0.2 | 0.713 ± 0.2 | 0.68 ± 0.026 | 0.737 ± 0.075 | 0.649 ± 0.1
